Target: T1, Papain (Carica papaya, UniProt P00784)
T1 sequence (P00784 whole entry): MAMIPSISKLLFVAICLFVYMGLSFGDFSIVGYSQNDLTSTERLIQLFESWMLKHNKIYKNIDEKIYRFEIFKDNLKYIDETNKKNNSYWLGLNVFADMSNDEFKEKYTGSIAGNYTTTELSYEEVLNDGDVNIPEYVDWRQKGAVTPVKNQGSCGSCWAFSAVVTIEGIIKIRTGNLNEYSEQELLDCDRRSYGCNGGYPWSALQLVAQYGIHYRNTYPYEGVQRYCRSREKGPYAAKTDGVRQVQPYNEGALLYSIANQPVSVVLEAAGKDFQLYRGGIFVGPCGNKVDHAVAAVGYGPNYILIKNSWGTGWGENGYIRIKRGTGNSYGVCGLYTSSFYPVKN
Assay: Inhibitory activity measured against papain.
Conditions: read-out: Ki app

CC(C)C[C@H](NC(=O)OCc1ccccc1)C(=O)NCC(=O)CNC(=O)[C@H](CC(C)C)NC(=O)OCc1ccccc1
Ki: 10 µM

Reference: ChEMBL document CHEMBL1131175, “Use of papain as a model for the structure-based design of cathepsin K inhibitors: crystal structures of two papain-inhibitor complexes demonstrate binding to S'-subsites” (J Med Chem, 1998)
